The values that follow come from patent publication US11465997B2, “Synthesis of disorazoles and analogs thereof as potent anticancer agents” (WILLIAM MARSH RICE UNIVERSITY, priority 2017, dated 2022).

Usually IC50 stands for the midpoint of a concentration-inhibition curve.

In series [1] the test system is prostate cancer cell lines. The settings on record: Jansen et al., 1994 and Elnakady et al., 2004, read-out: IC50 against prostate cancer cell line; cited from earlier work.
Series [2] relates to ovarian cancer cell lines. The settings on record: Jansen et al., 1994 and Elnakady et al., 2004, read-out: IC50 against ovarian cancer cell line; cited from earlier work.
A further series concerns lung cancer cell lines. The note with it: Jansen et al., 1994 and Elnakady et al., 2004, read-out: IC50 against lung cancer cell line; cited from earlier work.
Series [3] deals with MES SA DX (MES SA cell line with marked multidrug resistance). Briefly: 72 h killing (cytotoxicity) assay, MES SA DX. In kind it is cell-based, human. The settings on record: MES DX (MES SA DX) cells, multidrug resistant, read-out: Cytotoxic activity IC50.
Series [4] relates to MES SA uterine sarcoma cell line. Briefly: 72 h killing (cytotoxicity) assay, MES SA. In kind it is cell-based, human. The note with it: MES SA cells, read-out: Cytotoxic activity IC50.
A short description of series [5]: 72 h killing (cytotoxicity) assay, HEK 293T. The settings on record: human; 293T (HEK 293T) cells; read-out: Cytotoxic activity IC50. The format is cell-based.
Series [6] can be described thus: solubility of the product in solvents. In kind it is physicochemical. The note with it: e.g., MeOH, DMSO, DCM, CHCl3, MeCN. How it is done:
To a stirred solution of compound 108 (9.0 mg, 9.0 μmol, 1.0 equiv) in DMF (300 μL) and H2O (2.3 μl, 130 μmol, 14 equiv) was added TASF (12 mg, 45 μmol, 5.0 equiv) and the reaction mixture was heated at 40° C. and stirred for 48 h. The resulting mixture was filtered through a small silica pad (10 cm, SiO2, hexanes:EtOAc 1:1→0:1). The resulting fractions containing the desired products were combined, concentrated and purified by flash column chromatography (SiO2, hexanes:EtOAc 1:1→1:4→0:1) to yield bis-(cp-thiazolyl)-disorazole B1 (7, 3.0 mg, 4.2 μmol, 46% yield) as a white foam. […] 86: Rf=0.15 (hexanes:EtOAc, 2:3); IR (film): vmax=3439, 2922, 2852, 1714, 1629, 1212, 1104, 964 cm^−1; ^1H NMR (600 MHz, DMSO-d6 with DCM) δ 8.37 (s, 2H), 6.45-6.37 (m, 2H), 6.21 (d, J=11.9 Hz, 2H), 6.15 (t, J=11.8 Hz, 2H), 5.66 (dd, J=14.1, 11.0 Hz, 2H), 5.60-5.49 (m, 4H), 5.39-5.31 (m, 2H), 5.23-5.11 (m, 4H), 4.64 (d, J=4.6 Hz, 2H), 3.73 (t, J=5.3 Hz, 2H), 2.70 (q, J=12.0 Hz, 2H), 2.29-2.22 (m, 2H), 2.22-2.13 (m, 2H), 1.82-1.73 (m, 2H), 1.64 (d, J=4.9 Hz, 6H), 0.96 (s, 6H), 0.88 (s, 6H), 0.60 (dd, J=10.4, 4.9 Hz, 4H) ppm; ^13C NMR (151 MHz, DMSO-d6 with DCM) δ 163.45, 159.37, 145.61, 142.90, 133.36, 131.70, 131.53, 127.55, 126.37, 125.78, 123.99, 118.18, 76.27, 75.30, 41.33, 27.65, 23.24, 19.05, 19.03, 18.95, 17.63, 16.64. ppm; HR-MS (ESI-TOF): calcd for C44H54O6N2S2Na^+ [M+Na]^+: 793.3316. […]

Like-named read-outs stand apart in the source and are kept apart here. Non-standard residues stand in square brackets, D forms with d. Residues, ends and D or L forms follow the SMILES beside them. *: point of attachment. Dolaproine = CO[C@@H]([C@@H]1CCCN1)[C@@H](C)C(=O)O; Dil = CC[C@H](C)[C@H](NC)[C@@H](CC(=O)O)OC; X1 = C[C@@H](N*)[C@@H](O)c1ccccc1; NMeV = CN[C@H](C(=O)O)C(C)C

Consider `C/C=C/[C@H](O)C(C)(C)[C@@H]1C\C=C/C=C\C=C\[C@H](OC)Cc2nc(co2)C(=O)O[C@H](C(C)(C)[C@@H](O)/C=C/C)C/C=C\[C@H]2O[C@H]2/C=C/C=C\c2nc(co2)C(=O)O1` [Disorazole A1, (2Z,4E,6S,8R,9Z,12S,20R,21E,23Z,25Z,28S)-12,28-Bis[(3S,4E)-3-hydroxy-2-methylhex-4-en-2-yl]-20-methoxy-7,13,17,29,33-pentaoxa-34,35-diazatetracyclo[29.2.1.1^15,18.0^6,8]pentatriaconta-1 (34),2,4,9,15,18 (35),21,23,25,31-decaene-14,30-dione], for which the IC50 in series [1] is 0.0071 nM; in series [2] it was 0.0049 nM; in the series with lung cancer cell lines it was 0.0023 nM.

Consider `CC[C@H](C)[C@@H]([C@@H](CC(=O)N1CCC[C@H]1[C@H](OC)[C@@H](C)C(=O)N[C@H](C)[C@@H](O)c1ccccc1)OC)N(C)C(=O)[C@@H](NC(=O)[C@@H](NC)C(C)C)C(C)C` [MMAE, monomethyl auristatin E] (H-[NMeV]V[Dil][Dolaproine]-X1), for which the IC50 in series [3] was 106 nM; in series [4], 0.51 nM.

Turning to `C/C=C/[C@H](O)C(C)(C)[C@@H]1C\C=C/C=C\C=C\[C@H](OC)Cc2nc(co2)C(=O)O[C@H](C(C)(C)[C@@H](O)/C=C/C)C/C=C\[C@H]2C[C@H]2/C=C/C=C\c2nc(co2)C(=O)O1` [compound 5, (2Z,4E,6S,8R,9Z,12S,20R,21E,23Z,25Z,28S)-12,28-Bis[(3S,4E)-3-hydroxy-2-methylhex-4-en-2-yl]-20-methoxy-13,17,29,33-tetraoxa-34,35-diazatetracyclo[29.2.1.1^15,18.0^6,8]pentatriaconta-1 (34),2,4,9,15,18 (35),21,23,25,31-decaene-14,30-dione], the IC50 in series [3] (Homo sapiens) is 0.47 nM; in series [4] (Homo sapiens) it was 0.11 nM. For the same compound, in series [5], the IC50 at 72 h amounted to 0.06 nM.

In the case of `C/C=C/[C@H](O)C(C)(C)[C@@H]1C/C=C\[C@H]2C[C@H]2/C=C/C=C\c2nc(cs2)C(=O)O[C@H](C(C)(C)[C@@H](O)/C=C/C)C/C=C\[C@H]2C[C@H]2/C=C/C=C\c2nc(cs2)C(=O)O1` [compound 86, (2Z,4E,6S,8R,9Z,12S,19Z,21E,23S,25R,26Z,29S)-12,29-Bis[(3S,4E)-3-hydroxy-2-methylhex-4-en-2-yl]-13,30-dioxa-17,34-dithia-35,36-diazapentacyclo[30.2.1.1^15,18.0^6,8.0^23,25]hexatriaconta-1 (35),2,4,9,15,18 (36),19,21,26,32-decaene-14,31-dione], in series [6], the “solubility in pure solvents” value is listed as “insoluble in most pure solvents”.
